One data set deals with souris. The data set can be described thus: Toxicity: mortality in mice after oral or intraperitoneal administration. It counts as in vivo.
The subject of another data set is candida albicans. In words: In vitro antifungal activity by standard dilution techniques. Type of data set: cell-based. The settings on record: concentration de 20 microgramme par ml. The source says:
In vitro une activité antifongique a été mise en évidence vis à vis de candida albicans pour le COR3296. L'activité observée par des techniques de dilution standard est significative à la concentration de 20 microgramme par ml.

The subject of data set [1] is rat génétiquement hypertendu. In words: Arterial blood pressure in genetically hypertensive rats after oral administration. It counts as in vivo. The note with it: 60mg/kg voie orale. The procedure:
Administré chez le rat génétiquement hypertendu à la dose de 60mg/kg par voie orale le COR3267 entraine une diminution de la pression artérielle de 8, 12 et 14 %, ces variations étant respectivement mesurées 2, 4 et 6 heures après l'administration.

Setting [2] is: voie intrapéritonéale, 200mg/kg.

In the case of `N=C1OC(CN2CCN(c3ccccc3)CC2)CN1C(=O)Nc1ccccc1` (stereo not drawn) [COR3262, Phényl carbamoyl-3, imino-2, (phényl-4 pipérazinylméthyl)-5 oxazolidine], the mortalité entry in the data set with souris (setting [2]) is on record as “aucune mortalité”; in the data set with souris (voie orale, 300mg/kg), “aucune mortalité”.

For the molecule `N=C1OC(CN2CCN(c3ccccn3)CC2)CN1C(=O)Nc1ccccc1` (stereo not drawn) [COR3263, Phényl carbamoyl-3 imino-2 ((pyridyl-2)-4 pipérazinylméthyl)-5 oxazolidine], the mortalité result was “aucune mortalité” with souris (setting [2]) and “aucune mortalité” in the data set on souris (voie orale, 300mg/kg).

Regarding `N=C1OC(CN2CCN(c3cccc(C(F)(F)F)c3)CC2)CN1C(=O)Nc1ccccc1` (stereo not drawn) [COR3266, Phényl carbamoyl-3 imino-2 ((trifluorométhyl-3 phényl)-4 pipérazinylméthyl)-5 oxazolidine], the mortalité entry in the data set with souris (setting [2]) is reported as “aucune mortalité”; in the data set on souris (voie orale, 300mg/kg) it was “aucune mortalité”.

In the case of `O=C(Nc1ccccc1)N1CC(CN2CCN(c3cccc(C(F)(F)F)c3)CC2)OC1=O` (stereo not drawn) [COR3276, Phényl carbamoyl-3 ((trifluorométhyl-3 phényl)-4 pipérazinylméthyl)-5 oxazolidinone-2], the mortalité entry in the data set with souris (setting [2]) is given as “aucune mortalité”; in the data set with souris (voie orale, 300mg/kg) it was “aucune mortalité”.

As to `N=C1OC(CN2CCN(c3ccc(F)cc3)CC2)CN1C(=O)Nc1ccccc1` (stereo not drawn) [COR3278, Phényl carbamoyl-3 imino-2 ((fluoro-4 phényl)-4 pipérazinylméthyl)-5 oxazolidine], the mortalité result in the data set with souris (setting [2]) is on record as “aucune mortalité”; in the data set with souris (voie orale, 300mg/kg), “aucune mortalité”.

`N=C1OC(CN2CCN(c3cccc(Cl)c3)CC2)CN1C(=O)Nc1ccccc1` (stereo not drawn) [COR3279, Phényl carbamoyl-3 imino-2 ((chloto-3 phényl)-4 pipérazinylméthyl)-5 oxazolidine]: the mortalité entry with souris (setting [2]) is reported as “aucune mortalité”; in the data set on souris (voie orale, 300mg/kg), “aucune mortalité”.

As for `N=C1OC(CN2CCN(c3ccccc3)CC2)CN1C(=S)Nc1ccccc1` (stereo not drawn) [COR3296, Phényl thiocarbamoyl-3 imino-2 (phényl-4 pipérazinylméthyl)-5 oxazolidine], the mortalité entry with souris (setting [2]) is on record as “aucune mortalité”; in the data set on souris (voie orale, 300mg/kg), “aucune mortalité”. Further, the activité antifongique result with candida albicans is reported as “significative”.

On to “Chlorhydrate de la phényl carbamoyl-3 ((chloro-3 phényl)-4 pipérazinylméthyl)-5 oxazolidinone-2 [COR3277]”, for which the mortalité entry with souris (setting [2]) is reported as “aucune mortalité”; in the data set on souris (voie orale, 300mg/kg) it was “aucune mortalité”.

As for “Chlorhydrate de la phényl carbamoyl-3 ((fluoro-4 phényl)-4 pipérazinylméthyl)-5 oxazolidinone-2 [COR3265]”, the mortalité entry with souris (setting [2]) is “aucune mortalité”; in the data set on souris (voie orale, 300mg/kg), “aucune mortalité”.

In the case of “Chlorhydrate de la phényl carbamoyl-3, (phényl-4 pipérazinylméthyl)-5 oxazolidinone-2 [COR3267]”, the mortalité result in the data set with souris (setting [2]) is “aucune mortalité”; with souris (voie orale, 300mg/kg), “aucune mortalité”. Moreover, the “diminution de la pression artérielle” value in data set [1] (2 heures après l'administration) was 8%; in data set [1] (4 heures après l'administration), 12%; in data set [1] (6 heures après l'administration) it was 14%.

The values above are taken from patent EP0294307B1, “3-Arylcarbamoyl-5-aminomethyl-oxazolidines, and their salts with pharmaceutically acceptable acids” (CORTIAL S.A., priority 1987, dated 1988).
